{"source": "paper PMC8137933", "about": "“Using molecular dynamics simulations to prioritize and understand AI-generated cell penetrating peptides” (Scientific Reports, 2021)", "tested_on": "HeLa cells", "format": "cell-based", "protocol": "We first evaluated cell toxicity of Pep-MD. Specifically, we quantified HeLa cell viability using CellTiter-Glo® Luminescent Cell Viability Assay kit in the presence of a series of concentration of Pep-MD, 0.1, 0.5 and 2 µM, in serum-free cell culture media. The kit can visualize the number of viable cells as chemiluminescence intensity based on quantitation of the ATP present, an indicator of metabolically active cells. As a positive control, we also evaluated TAT (GRKKRRQRRR in amino acid sequence).\nThe HeLa cell line was purchased from RIKEN cell bank (Tsukuba, Japan). HeLa cells were cultured in Dulbecco’s Eagle’s medium (DMEM, FUJIFILM Wako Pure Chemical, Japan) supplemented with inactivated 10% fetal bovine serum (FBS, Biosera, France) and 1% penicillin–streptomycin solution (FUJIFILM Wako Pure Chemical).\nHeLa cells were seeded at a density of 8000 cells per well in 96 well plate (AGC Techno Glass, Shizuoka, Japan). […] Cell viability of each well was quantified with CellTiter-Glo® Luminescent Cell Viability Assay kit (Promega, Madison, WI, USA) and EnSpire™ microplate reader (PerkinElmer, Waltham, MA, USA) according to manufacturer’s instructions. The cell viability was calculated as the chemiluminescence intensity ratio of samples to that of […] without peptide."}
{"sequence": "YRGWHCRGITKNGIIFDIKW [Pep-MD]", "values": [{"measurement": "Cell toxicity (HeLa cell viability) at 2.0 µM", "result": "little toxicity"}]}
{"sequence": "GRKKRRQRRR [TAT]", "values": [{"measurement": "Cell toxicity (HeLa cell viability) at 2.0 µM", "result": "significant cell toxicity"}]}
